Laboratory results: the Kinase Knowledgebase extract (Sharma et al. 2016)

target: PIK3CA (human) (UniProt P42336); assay: Inhibition of PIK3CA Kinase Activity
Sequence (P42336 whole entry, looked up): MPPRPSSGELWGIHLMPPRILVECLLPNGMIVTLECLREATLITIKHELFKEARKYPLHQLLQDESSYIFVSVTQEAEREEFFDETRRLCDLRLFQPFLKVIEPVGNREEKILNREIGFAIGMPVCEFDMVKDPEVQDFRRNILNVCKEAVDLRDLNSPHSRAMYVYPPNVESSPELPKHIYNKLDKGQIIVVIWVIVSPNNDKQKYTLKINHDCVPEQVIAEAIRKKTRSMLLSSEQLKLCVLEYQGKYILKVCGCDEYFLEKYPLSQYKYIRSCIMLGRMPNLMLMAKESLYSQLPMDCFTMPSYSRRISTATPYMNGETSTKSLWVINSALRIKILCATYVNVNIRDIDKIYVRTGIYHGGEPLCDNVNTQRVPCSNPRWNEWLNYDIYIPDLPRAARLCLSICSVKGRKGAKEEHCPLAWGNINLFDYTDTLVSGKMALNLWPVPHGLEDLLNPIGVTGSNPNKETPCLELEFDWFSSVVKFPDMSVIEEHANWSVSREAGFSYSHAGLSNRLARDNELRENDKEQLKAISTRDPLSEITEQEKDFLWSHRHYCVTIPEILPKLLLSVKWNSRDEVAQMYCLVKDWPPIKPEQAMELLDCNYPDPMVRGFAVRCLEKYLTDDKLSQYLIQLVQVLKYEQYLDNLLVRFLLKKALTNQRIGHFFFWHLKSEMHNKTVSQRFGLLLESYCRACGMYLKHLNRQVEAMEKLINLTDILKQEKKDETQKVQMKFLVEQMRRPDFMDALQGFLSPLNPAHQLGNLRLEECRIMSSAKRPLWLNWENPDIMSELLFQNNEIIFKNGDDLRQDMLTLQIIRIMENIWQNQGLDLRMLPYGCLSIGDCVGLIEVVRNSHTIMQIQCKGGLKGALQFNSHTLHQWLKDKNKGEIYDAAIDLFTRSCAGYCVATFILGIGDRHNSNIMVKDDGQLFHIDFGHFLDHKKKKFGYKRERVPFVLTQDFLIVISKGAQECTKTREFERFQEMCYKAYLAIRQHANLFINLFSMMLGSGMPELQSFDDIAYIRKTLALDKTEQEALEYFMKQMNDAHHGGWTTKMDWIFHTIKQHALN

IC50, < 1000 nM:
CCCc1nccn1-c1nc(-c2ccnc3[nH]ccc23)nc(N2CCOCC2)n1
OCc1cn(-c2nc(-c3cccc4[nH]ccc34)nc(N3CCOCC3)n2)cn1
Nc1ccc(-c2nc(N3CCOCC3)nc(-n3ccc(C(F)(F)F)n3)n2)cn1
Cc1nccn1-c1nc(-c2cccc3[nH]ncc23)nc(N2CCOCC2)n1
CC#Cc1cn(-c2nc(-c3cccc4[nH]ccc34)nc(N3CCOCC3)n2)c(CC)n1
Cc1cc(C)n(-c2nc(-c3ccc(N)nc3)nc(N3CCOCC3)n2)n1
CCc1nccn1-c1nc(-c2cccc3[nH]ccc23)nc(N2CCOCC2)n1
Cc1ccn(-c2nc(-c3cnc(N)nc3)nc(N3CCOCC3)n2)n1
Cc1cc(C(F)(F)F)n(-c2nc(-c3cnc(N)nc3)nc(N3CCOCC3)n2)n1
CCCc1nc2ccccc2n1-c1nc(-c2cnc(N)nc2)nc(N2CCOCC2)n1
COc1nc(N)ncc1-c1nc(N2CCOCC2)nc(-n2ccnc2C)n1
c1ccc(Cc2nccn2-c2nc(-c3cccc4[nH]ccc34)nc(N3CCOCC3)n2)cc1
Cc1nc(N)ncc1-c1nc(N2CCOCC2)nc(-n2ccnc2C(C)C)n1
Cc1nc(CNC2CC2)cn1-c1nc(-c2cccc3[nH]ccc23)nc(N2CCOCC2)n1
Cc1ccc2c(c1)ncn2-c1nc(-c2cccc3[nH]ccc23)nc(N2CCOCC2)n1
N#CCCc1nccn1-c1nc(-c2cccc3[nH]ccc23)nc(N2CCOCC2)n1
Cc1nc2ccccc2n1-c1nc(-c2cccc(CO)c2)nc(N2CCOCC2)n1
FC(F)(F)c1nc2ccccc2n1-c1nc(-c2cccc3[nH]ccc23)nc(N2CCOCC2)n1
CCc1cn(-c2nc(-c3cccc4[nH]ccc34)nc(N3CCOCC3)n2)c(CC)n1
CCCc1nc2ccccc2n1-c1nc(-c2cccc3[nH]ccc23)nc(N2CCOCC2)n1
CCc1nc(C#Cc2ccccn2)cn1-c1nc(-c2cccc3[nH]ccc23)nc(N2CCOCC2)n1
FC(F)c1nc2ccccc2n1-c1nc(-c2cccc3[nH]ccc23)nc(N2CCOCC2)n1
Cc1cc(C)n(-c2nc(-c3cccc4[nH]ccc34)nc(N3CCOCC3)n2)n1
Nc1ccc2c(c1)nc(C(F)(F)F)n2-c1nc(-c2cccc3[nH]ccc23)nc(N2CCOCC2)n1
Nc1ccc(-c2nc(N3CCOCC3)nc(-n3ncc4c3CCCC4)n2)cn1
Cc1nccn1-c1nc(-c2cccc(O)c2)nc(N2CCOCC2)n1
C=Cc1nccn1-c1nc(-c2cccc3[nH]ccc23)nc(N2CCOCC2)n1
CCN(CC)CCN(C)Cc1cn(-c2nc(-c3cccc4[nH]ccc34)nc(N3CCOCC3)n2)cn1
COCCNCc1cn(-c2nc(-c3cccc4[nH]ccc34)nc(N3CCOCC3)n2)c(C)n1
Cc1nc2ccccc2n1-c1nc(-c2cccc3[nH]ccc23)nc(N2CCOCC2)n1
Cc1ccn(-c2nc(-c3ccc(N)nc3)nc(N3CCOCC3)n2)n1
CC(C)Cc1nccn1-c1nc(-c2cccc3[nH]ccc23)nc(N2CCOCC2)n1
Cc1cn(-c2nc(-c3cccc4[nH]ccc34)nc(N3CCOCC3)n2)cn1
CC(C)c1nccn1-c1nc(-c2cnc(N)nc2)nc(N2CCOCC2)n1
CCc1nc(C)cn1-c1nc(-c2cccc3[nH]ccc23)nc(N2CCOCC2)n1
c1cc(-c2nc(N3CCOCC3)nc(-n3ccnc3)n2)c2cc[nH]c2c1
Nc1ncc(-c2nc(N3CCOCC3)nc(-n3ncc4c3CCCC4)n2)cn1
Cc1nccn1-c1nc(-c2cccc3[nH]ccc23)nc(N2CCOCC2)n1
Cc1ccn(-c2nc(-c3cccc4[nH]ccc34)nc(N3CCOCC3)n2)n1
CC(C)c1nc2ccccc2n1-c1nc(-c2cnc(N)nc2)nc(N2CCOCC2)n1
CCCc1nccn1-c1nc(-c2cccc3[nH]ccc23)nc(N2CCOCC2)n1
O=C(O)c1cc2ccccc2n1-c1nc(-c2cccc3[nH]ccc23)nc(N2CCOCC2)n1
Cc1cc(C(F)(F)F)n(-c2nc(-c3ccc(N)nc3)nc(N3CCOCC3)n2)n1
Oc1cccc(-c2nc(N3CCOCC3)nc(-n3c(C(F)F)nc4ccccc43)n2)c1
Cc1nc(CN2CCCC2)cn1-c1nc(-c2cccc3[nH]ccc23)nc(N2CCOCC2)n1
Cc1nc2ccccc2n1-c1nc(-c2cnc(N)nc2)nc(N2CCOCC2)n1
Cc1nc2ccccc2n1-c1nc(-c2cc(O)cc(F)c2)nc(N2CCOCC2)n1
CCCCN(C)Cc1c(C)nc(CC)n1-c1nc(-c2cccc3[nH]ccc23)nc(N2CCOCC2)n1
CCc1nc2ccccc2n1-c1nc(-c2cnc(N)nc2)nc(N2CCOCC2)n1
COCCNC(=O)c1cc2ccccc2n1-c1nc(-c2cccc3[nH]ccc23)nc(N2CCOCC2)n1
CCc1nc2ccccc2n1-c1nc(-c2cccc3[nH]ccc23)nc(N2CCOCC2)n1
C[C@H]1COCCN1c1nc(-c2cnc(N)nc2)nc(-n2c(C(F)F)nc3ccccc32)n1
Cc1nc(CO)cn1-c1nc(-c2cccc3[nH]ccc23)nc(N2CCOCC2)n1
Cc1nccn1-c1nc(-c2cccc(CO)c2)nc(N2CCOCC2)n1
C#Cc1cn(-c2nc(-c3cccc4[nH]ccc34)nc(N3CCOCC3)n2)c(CC)n1
CCCCc1nc2ccccc2n1-c1nc(-c2cnc(N)nc2)nc(N2CCOCC2)n1
COC(=O)CCc1nc2ccccc2n1-c1nc(-c2cccc3[nH]ccc23)nc(N2CCOCC2)n1
Cc1nccn1-c1nc(-c2cnc(N)nc2)nc(N2CCOCC2)n1
CCc1nc(C)c(CO)n1-c1nc(-c2cccc3[nH]ccc23)nc(N2CCOCC2)n1
CC(C)c1nccn1-c1nc(-c2cccc3[nH]ccc23)nc(N2CCOCC2)n1
N#CC=Cc1nccn1-c1nc(-c2cccc3[nH]ccc23)nc(N2CCOCC2)n1
CCCCc1nccn1-c1nc(-c2cccc3[nH]ccc23)nc(N2CCOCC2)n1
c1ccc(-c2nccn2-c2nc(-c3cccc4[nH]ccc34)nc(N3CCOCC3)n2)cc1
c1ccc2c(c1)nc(C1CC1)n2-c1nc(-c2cccc3[nH]ccc23)nc(N2CCOCC2)n1
Cc1nc2ccccc2n1-c1nc(-c2cccc(O)c2)nc(N2CCOCC2)n1
CCCCc1nccn1-c1nc(-c2cnc(N)nc2)nc(N2CCOCC2)n1
CCCCN(C)Cc1cn(-c2nc(-c3cccc4[nH]ccc34)nc(N3CCOCC3)n2)c(C)n1
CCc1nccn1-c1nc(-c2cnc(N)nc2)nc(N2CCOCC2)n1
Nc1ncc(-c2nc(N3CCOCC3)nc(-n3ccc(C(F)(F)F)n3)n2)cn1
c1cc(-c2nc(N3CCOCC3)nc(-n3cnc(CN4CCCC4)c3)n2)c2cc[nH]c2c1
CCCc1cn(-c2nc(-c3cccc4[nH]ccc34)nc(N3CCOCC3)n2)c(CC)n1
CCc1nccn1-c1nc(-c2ccnc3[nH]ccc23)nc(N2CCOCC2)n1
O=C(NC1CC1)c1cc2ccccc2n1-c1nc(-c2cccc3[nH]ccc23)nc(N2CCOCC2)n1
N#CCCc1nccn1-c1nc(-c2cnc(N)nc2)nc(N2CCOCC2)n1
CC(=O)Nc1ccc(-c2nc(N3CCOCC3)nc(-n3c(C)nc4ccccc43)n2)cn1
CCCCc1nc2ccccc2n1-c1nc(-c2cccc3[nH]ccc23)nc(N2CCOCC2)n1
CC(C)c1nc2ccccc2n1-c1nc(-c2cccc3[nH]ccc23)nc(N2CCOCC2)n1
Cc1nc2ccccc2n1-c1nc(-c2ccc(N)nc2)nc(N2CCOCC2)n1
Nc1ncc(-c2nc(N3CCOCC3)nc(-n3c(C(F)F)nc4ccccc43)n2)cn1
